In ChEMBL document CHEMBL6177952, “Exploring chloro-isoxazole compounds inspired on tetrahydrofuran neolignans as promising antileishmanial agents” (Eur J Med Chem, 2025):
Active and inactive are the calls of the source. The calls are words filed in the database; no cut-off is given here.

How the values were obtained:
Leishmania amazonensis [1] = assay: Antileishmanial activity against leishmania amazonensis infected in BALB/c mouse assessed as reduction in viable parasites in footpad tissue at 5 mg/kg, ILES measured after 65 days post infection relative to control; format: functional; settings: time 65 day
Leishmania amazonensis [2] = assay: Antileishmanial activity against leishmania amazonensis IFLA/BR/1967/PH8 intracellular amastigote infected in mouse Peritoneal macrophage incubated for 24 hrs; format: functional, organism-based; settings: IFLA/BR/1967/PH8, Peritoneal macrophage
[3] = Selectivity ratio of CC50 for cytotoxicity against BALB/c mouse Peritoneal macrophage assessed as inhibition of cell growth to IC50 for antileishmanial activity against leishmania amazonensis IFLA/BR/1967/PH8 intracellular amastigote infected in mouse Peritoneal macrophage; format: toxicity, cell-based; settings: peritoneal macrophages, read-out: Ratio CC50/IC50
Leishmania amazonensis [4] = assay: Potency index, ratio of Amphotericin B IC50 to test compound IC50 for antileishmanial activity against leishmania amazonensis IFLA/BR/1967/PH8 promastigotes infected in mouse Peritoneal macrophage incubated for 24 hrs; format: functional
Leishmania amazonensis [5] = assay: Potency index, ratio of pentamidine IC50 to test compound IC50 for antileishmanial activity against leishmania amazonensis IFLA/BR/1967/PH8 promastigotes infected in mouse Peritoneal macrophage incubated for 24 hrs; format: functional
Leishmania amazonensis [6] = assay: Antileishmanial activity against leishmania amazonensis infected in BALB/c mouse assessed as reduction in parasite load in footpad tissue at 5 mg/kg, ILES measured after 65 days post infection by limiting dilution assay; format: functional, organism-based; settings: time 65.0 day
Leishmania amazonensis [7] = assay: Antileishmanial activity against leishmania amazonensis infected in BALB/c mouse assessed as reduction in parasitism in draining lymph node at 5 mg/kg, ILES measured after 65 days post infection by limiting dilution assay; format: functional, organism-based; settings: time 65.0 day
Leishmania amazonensis [8] = assay: Antileishmanial activity against leishmania amazonensis infected in BALB/c mouse assessed as reduction in […] at 5 mg/kg, ILES measured after 65 days post infection by limiting dilution assay; format: functional, organism-based; settings: time 65.0 day
Mitochondrial membrane = assay: Induction of mitochondrial membrane potential in Leishmania amazonensis promastigotes at 38.1 uM measured at 72 hrs by flow cytometry analysis; format: cell membranes
[9] = Mutagenicity in Salmonella typhimurium TA102 assessed as number of revertant colonies per plate at 1500 microg/ml in presence of S9 fraction by Ames test; format: toxicity, subcellular; settings: salmonella enterica subsp. enterica serovar typhimurium, dose 1500 µg/ml
[10] = Mutagenicity in Salmonella typhimurium TA98 assessed as number of revertant colonies per plate at 50 microg/ml by Ames test; format: toxicity; settings: salmonella enterica subsp. enterica serovar typhimurium; dose 50 µg/ml
[11] = Mutagenicity in Salmonella typhimurium TA98 assessed as number of revertant colonies per plate at 150 microg/ml by Ames test; format: toxicity; settings: salmonella enterica subsp. enterica serovar typhimurium; dose 150 µg/ml
[12] = Mutagenicity in Salmonella typhimurium TA98 assessed as number of revertant colonies per plate at 500 microg/ml by Ames test; format: toxicity; settings: salmonella enterica subsp. enterica serovar typhimurium; dose 500 µg/ml
[13] = Mutagenicity in Salmonella typhimurium TA98 assessed as number of revertant colonies per plate at 1500 microg/ml by Ames test; format: toxicity; settings: salmonella enterica subsp. enterica serovar typhimurium; dose 1500 µg/ml
[14] = Mutagenicity in Salmonella typhimurium TA100 assessed as number of revertant colonies per plate at 150 microg/ml by Ames test; format: toxicity; settings: salmonella enterica subsp. enterica serovar typhimurium; dose 150 µg/ml
[15] = Mutagenicity in Salmonella typhimurium TA100 assessed as number of revertant colonies per plate at 500 microg/ml by Ames test; format: toxicity; settings: salmonella enterica subsp. enterica serovar typhimurium; dose 500 µg/ml
[16] = Mutagenicity in Salmonella typhimurium TA100 assessed as number of revertant colonies per plate at 1500 microg/ml by Ames test; format: toxicity; settings: salmonella enterica subsp. enterica serovar typhimurium; dose 1500 µg/ml
[17] = Mutagenicity in Salmonella typhimurium TA100 assessed as number of revertant colonies per plate at 5000 microg/ml by Ames test; format: toxicity; settings: salmonella enterica subsp. enterica serovar typhimurium; dose 5000 µg/ml
[18] = Mutagenicity in Salmonella typhimurium TA102 assessed as number of revertant colonies per plate at 50 microg/ml in presence of S9 fraction by Ames test; format: toxicity, subcellular; settings: salmonella enterica subsp. enterica serovar typhimurium, dose 50 µg/ml
[19] = Mutagenicity in Salmonella typhimurium TA102 assessed as number of revertant colonies per plate at 50 microg/ml by Ames test; format: toxicity; settings: salmonella enterica subsp. enterica serovar typhimurium; dose 50 µg/ml
[20] = Mutagenicity in Salmonella typhimurium TA102 assessed as number of revertant colonies per plate at 150 microg/ml in presence of S9 fraction by Ames test; format: toxicity, subcellular; settings: salmonella enterica subsp. enterica serovar typhimurium, dose 150 µg/ml
[21] = Mutagenicity in Salmonella typhimurium TA102 assessed as number of revertant colonies per plate at 150 microg/ml by Ames test; format: toxicity; settings: salmonella enterica subsp. enterica serovar typhimurium; dose 150 µg/ml
[22] = Mutagenicity in Salmonella typhimurium TA102 assessed as number of revertant colonies per plate at 500 microg/ml in presence of S9 fraction by Ames test; format: toxicity, subcellular; settings: salmonella enterica subsp. enterica serovar typhimurium, dose 500 µg/ml
[23] = Mutagenicity in Salmonella typhimurium TA102 assessed as number of revertant colonies per plate at 1500 microg/ml by Ames test; format: toxicity; settings: salmonella enterica subsp. enterica serovar typhimurium; dose 1500 µg/ml
[24] = Mutagenicity in Salmonella typhimurium TA102 assessed as number of revertant colonies per plate at 5000 microg/ml by Ames test; format: toxicity; settings: salmonella enterica subsp. enterica serovar typhimurium; dose 5000 µg/ml
Leishmania amazonensis [25] = assay: Antileishmanial activity against Leishmania amazonensis promastigotes assessed as early apoptotic parasites at 38.1 uM incubated for 24 hrs by Annexin V/7-AAD staining based flow cytometry analysis relative to control; format: functional
Leishmania amazonensis [26] = assay: Antileishmanial activity against Leishmania amazonensis promastigotes assessed as late apoptotic parasites at 38.1 uM incubated for 24 hrs by Annexin V/7-AAD staining based flow cytometry analysis relative to control; format: functional
Leishmania amazonensis [27] = assay: Antileishmanial activity against Leishmania amazonensis promastigotes assessed as necrotic parasites at 38.1 uM incubated for 24 hrs by Annexin V/7-AAD staining based flow cytometry analysis relative to control; format: functional
Leishmania amazonensis [28] = assay: Antileishmanial activity against Leishmania amazonensis promastigotes assessed as early apoptotic parasites at 38.1 uM incubated for 48 hrs by Annexin V/7-AAD staining based flow cytometry analysis relative to control; format: functional
Leishmania amazonensis [29] = assay: Antileishmanial activity against Leishmania amazonensis promastigotes assessed as late apoptotic parasites at 38.1 uM incubated for 48 hrs by Annexin V/7-AAD staining based flow cytometry analysis relative to control; format: functional
Leishmania amazonensis [30] = assay: Antileishmanial activity against Leishmania amazonensis promastigotes assessed as necrotic parasites at 38.1 uM incubated for 48 hrs by Annexin V/7-AAD staining based flow cytometry analysis relative to control; format: functional
Leishmania amazonensis [31] = assay: Antileishmanial activity against Leishmania amazonensis promastigotes assessed as early apoptotic parasites at 38.1 uM incubated for 72 hrs by Annexin V/7-AAD staining based flow cytometry analysis relative to control; format: functional
Leishmania amazonensis [32] = assay: Antileishmanial activity against Leishmania amazonensis promastigotes assessed as late apoptotic parasites at 38.1 uM incubated for 72 hrs by Annexin V/7-AAD staining based flow cytometry analysis relative to control; format: functional
Leishmania amazonensis [33] = assay: Antileishmanial activity against Leishmania amazonensis promastigotes assessed as viable apoptotic parasites at 38.1 uM incubated for 72 hrs by Annexin V/7-AAD staining based flow cytometry analysis relative to control; format: functional
Leishmania amazonensis [34] = assay: Antileishmanial activity against Leishmania amazonensis promastigotes assessed as necrotic parasites at 38.1 uM incubated for 72 hrs by Annexin V/7-AAD staining based flow cytometry analysis relative to control; format: functional

IC50 (Leishmania amazonensis [2]): 2.2 µM
Activity (Mitochondrial membrane): Active
Structure (SMILES): COc1cc(-c2cc(-c3ccc4c(c3)OCO4)on2)c(Cl)c(OC)c1OC
Activity (Leishmania amazonensis [1]): 99.5%
selectivity ratio [3]: 22.7
Ratio IC50 (Leishmania amazonensis [4]): 3.6
Ratio IC50 (Leishmania amazonensis [5]): 29
Activity (Leishmania amazonensis [6]): Active
Activity (Leishmania amazonensis [7]): Active
Activity (Leishmania amazonensis [8]): Active
Activity [9]: 100 revertants/plate
Activity [10]: 19.7 revertants/plate
revertant count [11]: 9.7 revertants/plate
revertant count [12]: 23.3 revertants/plate
revertant count [13]: 32.7 revertants/plate
Activity [14]: 94.6 revertants/plate
revertant count [15]: 123 revertants/plate
Activity [16]: 116 revertants/plate
Activity [17]: 114 revertants/plate
Activity [18]: 204 revertants/plate
revertant count [19]: 139 revertants/plate
Activity [20]: 187 revertants/plate
Activity [21]: 142 revertants/plate
revertant count [22]: 109 revertants/plate
Activity [23]: 182 revertants/plate
revertant count [24]: 194 revertants/plate
Activity (Leishmania amazonensis [25]): 0.8%
Activity (Leishmania amazonensis [26]): 0.4%
Activity (Leishmania amazonensis [27]): 0.3%
Activity (Leishmania amazonensis [28]): 3.6%
Activity (Leishmania amazonensis [29]): 0.6%
Activity (Leishmania amazonensis [30]): 0.6%
Activity (Leishmania amazonensis [31]): 2.4%
Activity (Leishmania amazonensis [32]): 1.9%
Activity (Leishmania amazonensis [33]): 93.2%
Activity (Leishmania amazonensis [34]): 2.5%
